Results on 17 compounds are retold here after patent US20210070748A1, “INHIBITORS OF BRUTONS TYROSINE KINASE” (Pharmacyclics LLC, priority 2015, published 2021).

SMILES strings stand for the structures. pIC50: −log10 of the molar value.

Common to all, as to format: biochemical
The target in one experiment is LCK (Homo sapiens, UniProt P06239). The experiment is described as follows: Inhibition of a panel of kinases, in vitro HotSpot kinase assay: LCK. Particulars: D-compounds panel data; 1 μM ATP; read-out: IC50 LCK.
LCK, sequence (P06239 whole entry): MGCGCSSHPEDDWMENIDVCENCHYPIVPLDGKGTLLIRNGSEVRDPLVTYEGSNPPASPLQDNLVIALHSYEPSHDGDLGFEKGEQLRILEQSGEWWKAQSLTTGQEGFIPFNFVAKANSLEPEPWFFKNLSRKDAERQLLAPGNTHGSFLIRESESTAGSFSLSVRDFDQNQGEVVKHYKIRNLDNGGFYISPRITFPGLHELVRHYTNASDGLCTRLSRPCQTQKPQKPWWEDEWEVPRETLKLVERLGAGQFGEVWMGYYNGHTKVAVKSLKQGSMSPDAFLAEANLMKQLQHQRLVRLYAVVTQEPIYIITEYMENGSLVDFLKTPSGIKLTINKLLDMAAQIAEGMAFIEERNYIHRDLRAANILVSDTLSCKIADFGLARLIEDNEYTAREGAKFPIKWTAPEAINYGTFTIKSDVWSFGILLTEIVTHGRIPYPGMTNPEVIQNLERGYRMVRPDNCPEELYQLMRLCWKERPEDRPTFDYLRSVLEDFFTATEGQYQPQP
In a further experiment the target is T1, ITK (Homo sapiens, UniProt Q08881).
T1 sequence (Q08881 1-620): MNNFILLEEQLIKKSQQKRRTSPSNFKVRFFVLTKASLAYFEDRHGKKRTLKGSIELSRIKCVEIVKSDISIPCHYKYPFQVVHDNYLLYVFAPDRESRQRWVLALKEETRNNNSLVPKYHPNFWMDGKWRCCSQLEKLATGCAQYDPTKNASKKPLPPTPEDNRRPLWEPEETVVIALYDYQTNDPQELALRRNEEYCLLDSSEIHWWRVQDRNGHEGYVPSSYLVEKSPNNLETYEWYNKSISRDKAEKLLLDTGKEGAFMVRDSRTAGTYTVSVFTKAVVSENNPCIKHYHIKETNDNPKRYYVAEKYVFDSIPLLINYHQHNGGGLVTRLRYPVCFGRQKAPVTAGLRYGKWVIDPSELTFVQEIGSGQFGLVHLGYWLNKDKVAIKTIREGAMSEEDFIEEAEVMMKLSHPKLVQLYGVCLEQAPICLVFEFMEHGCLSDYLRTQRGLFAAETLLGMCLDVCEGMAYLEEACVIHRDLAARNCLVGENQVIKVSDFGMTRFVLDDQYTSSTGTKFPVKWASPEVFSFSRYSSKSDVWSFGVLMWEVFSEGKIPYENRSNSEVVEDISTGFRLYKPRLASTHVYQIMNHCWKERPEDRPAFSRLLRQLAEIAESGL
The experiment is described as follows: Inhibition of a panel of kinases, in vitro HotSpot kinase assay: ITK. The settings on record: D-compounds panel data; 1 μM ATP. The procedure:
(§1) The degree of inhibition of a panel of kinases is determined using the in vitro HotSpot kinase assay (purified enzymes, ^33P-ATP, an appropriate substrate and 1 μM ATP).

The next experiment has as its target T2, TEC (Homo sapiens, UniProt P42680).
T2 sequence (P42680 1-631): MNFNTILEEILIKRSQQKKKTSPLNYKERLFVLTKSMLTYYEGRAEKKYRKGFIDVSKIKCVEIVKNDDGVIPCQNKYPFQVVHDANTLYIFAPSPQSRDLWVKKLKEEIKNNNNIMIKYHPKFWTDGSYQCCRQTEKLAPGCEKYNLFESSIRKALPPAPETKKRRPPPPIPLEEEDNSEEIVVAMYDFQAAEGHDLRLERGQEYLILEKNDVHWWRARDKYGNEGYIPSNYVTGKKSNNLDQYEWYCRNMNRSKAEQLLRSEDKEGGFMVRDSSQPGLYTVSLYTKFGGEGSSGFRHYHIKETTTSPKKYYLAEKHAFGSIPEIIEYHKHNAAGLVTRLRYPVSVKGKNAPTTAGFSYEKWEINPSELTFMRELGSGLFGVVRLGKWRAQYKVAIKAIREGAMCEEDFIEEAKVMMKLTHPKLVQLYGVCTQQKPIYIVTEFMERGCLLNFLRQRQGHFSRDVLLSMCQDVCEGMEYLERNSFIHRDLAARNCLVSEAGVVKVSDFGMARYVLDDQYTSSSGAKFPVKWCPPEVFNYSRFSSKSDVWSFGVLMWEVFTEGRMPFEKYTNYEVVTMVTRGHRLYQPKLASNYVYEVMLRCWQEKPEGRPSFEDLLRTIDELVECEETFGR
Description: Inhibition of a panel of kinases, in vitro HotSpot kinase assay: TEC. Particulars: D-compounds panel data; 1 μM ATP. The procedure: as §1

By pIC50 is commonly meant −log10 of the IC50, conventionally taken in molar units. On to `C[C@@H]1[C@H](NC(=O)c2ccc(C3(C(F)(F)F)CC3)cc2)CCCN1c1cnc(C(N)=O)c(Nc2cnn(C)c2)n1` [Example D-221, 3-[(1-Methyl-1H-pyrazol-4-yl)amino]-5-[(2R,3R)-2-methyl-3-{4-[1-(trifluoromethyl)cyclopropyl]benzamido}piperidin-1-yl]pyrazine-2-carboxamide], for which the pIC50 on LCK was 6.00 to 7.00; on ITK it was 5.00 to 6.00; against TEC it was 7.00 to 8.00.

`Cn1cc(Nc2nc(N3C4CCC(NC(=O)c5ccc(C6CC6)cc5)C3CC4)cnc2C(N)=O)cn1` (single isomer, unassigned) [Example D-202, 5-[2-(4-cyclopropylbenzamido)-8-azabicyclo[3.2. I]octan-8-yl]-3-[(1-methyl-1H-pyrazol-4-yl)amino]pyrazine-2-carboxamide]: the pIC50 at LCK was 7.00 to 8.00; against ITK it was 5.00 to 6.00; at TEC it was 6.00 to 7.00.

In the case of `C[C@@H]1[C@H](NC(=O)c2ccc(C(C)(C)C)cc2)CCCN1c1cnc(C(N)=O)c(Nc2ccc(N3CCN(C)CC3)cc2)n1` [Example D-14, 5-[(2R,3R)-3-(4-tert-butylbenzamido)-2-methylpiperidin-1-yl]-3-{[4-(4-methylpiperazin-1-yl)phenyl]amino}pyrazine-2-carboxamide], the values for the pIC50 at LCK, at ITK and at TEC were 7.00 to 8.00, 6.00 to 7.00 and 7.00 to 8.00, respectively.

For the compound `Cn1cc(Nc2nc(N3C4CCC(NC(=O)c5ccc(C6CC6)cc5)C3CC4)cnc2C(N)=O)cn1` (single isomer, unassigned) [Example D-201, 5-[2-(4-cyclopropylbenzamido)-8-azabicyclo[3.2.1]octan-8-yl]-3-[(1-methyl-1H-pyrazol-4-yl)amino]pyrazine-2-carboxamide], the pIC50 at LCK is 6.00 to 7.00; against ITK, 5.00 to 6.00; against TEC, not below 8.00.

`Cc1cc(Nc2nc(N3CCC[C@@H](c4ncc(-c5ccccc5)[nH]4)C3)cnc2C(N)=O)sn1` [Example D-171, 3-[(3-methyl-1,2-thiazol-5-yl)amino]-5-[(3R)-3-(5-phenyl-1H-imidazol-2-yl)piperidin-1-yl]pyrazine-2-carboxamide]: the pIC50 at LCK is 6.00 to 7.00; at ITK, less than 5.00; against TEC, 6.00 to 7.00.

For `CN1CCN([C@@H]2CCCN(c3cnc(C(N)=O)c(Nc4cnn(C)c4)n3)C2)C1=O` [Example D-209, 3-[(1-methyl-1H-pyrazol-4-yl)amino]-5-[(3R)-3-(3-methyl-2-oxoimidazolidin-1-yl)piperidin-1-yl]pyrazine-2-carboxamide], the pIC50 was 6.00 to 7.00 at LCK, 5.00 to 6.00 against ITK and 7.00 to 8.00 at TEC.

Consider `C[C@@H]1[C@H](NC(=O)c2ccc3c(cnn3C)c2)CCCN1c1cnc(C(N)=O)c(Nc2ccc(N3CCN(C)CC3)cc2)n1` [Example D-234, N-[(2R,3R)-1-(5-carbamoyl-6-{[4-(4-methylpiperazin-1-yl)phenyl]amino}pyrazin-2-yl)-2-methylpiperidin-3-yl]-1-methyl-1H-indazole-5-carboxamide], for which the pIC50 on LCK is 7.00 to 8.00; on ITK, 7.00 to 8.00; at TEC, not below 8.00.

`C[C@@H]1[C@H](NC(=O)c2ccc(OC3CC3)cc2)CCCN1c1cnc(C(N)=O)c(Nc2cnn(C)c2)n1` [Example D-219, 5-[(2R,3R)-3-(4-cyclopropoxybenzamido)-2-methylpiperidin-1-yl]-3-[(1-methyl-1H-pyrazol-4-yl)amino]pyrazine-2-carboxamide]: the results for the pIC50 on LCK, against ITK and against TEC were 7.00 to 8.00, 6.00 to 7.00 and not below 8.00, respectively.

Regarding `Cc1nc2cc(C(=O)N[C@@H]3CCCN(c4cnc(C(N)=O)c(Nc5cnn(C)c5)n4)[C@@H]3C)ccc2s1` [Example D-242, N-[(2R,3R)-1-{5-carbamoyl-6-[(1-methyl-1H-pyrazol-4-yl)amino]pyrazin-2-yl}-2-methylpiperidin-3-yl]-2-methyl-1,3-benzothiazole-5-carboxamide], the pIC50 at LCK was 6.00 to 7.00; against ITK it was 6.00 to 7.00; against TEC, not below 8.00.

In the case of `CN1CCN(c2ccc(Nc3nc(N4CCC[C@@H](n5ccc6cc(C7CC7)ccc6c5=O)C4)cnc3C(N)=O)nc2)CC1` [Example D-179, 5-[(3R)-3-(6-cyclopropyl-1-oxo-1,2-dihydroisoquinolin-2-yl)piperidin-1-yl]-3-{[5-(4-methylpiperazin-1-yl)pyridin-2-yl]amino}pyrazine-2-carboxamide], the pIC50 on LCK was less than 5.00; against ITK, 5.00 to 6.00; against TEC, 5.00 to 6.00.

Turning to `C[C@@H]1[C@H](NC(=O)c2ccc(C3CC3)cc2F)CCCN1c1cnc(C(N)=O)c(Nc2cc(CN3CCOCC3)ns2)n1` [Example D-173, 5-[(2R,3R)-3-(4-cyclopropyl-2-fluorobenzamido)-2-methylpiperidin-1-yl]-3-{[3-(morpholin-4-ylmethyl)-1,2-thiazol-5-yl]amino}pyrazine-2-carboxamide], the pIC50 at LCK was 7.00 to 8.00; at ITK it was 6.00 to 7.00; against TEC, 7.00 to 8.00.

Turning to `C[C@@H]1[C@H](NC(=O)c2ccc(N(C)C)cc2)CCCN1c1cnc(C(N)=O)c(Nc2ccc(N3CCN(C)CC3)cc2)n1` [Example D-196, 5-[(2R,3R)-3-[4-(dimethylamino)benzamido]-2-methylpiperidin-1-yl]-3-{[4-(4-methylpiperazin-1-yl)phenyl]amino}pyrazine-2-carboxamide], the pIC50 on LCK, against ITK and at TEC was 7.00 to 8.00 each time.

For `C[C@@H]1[C@H](NC(=O)c2ccc(C3CC3)cc2F)CCCN1c1cnc(C(N)=O)c(Nc2cc(CN3CCCCC3)ns2)n1` [Example D-176, 5-[(2R,3R)-3-(4-cyclopropyl-2-fluorobenzamido)-2-methylpiperidin-1-yl]-3-{[3-(piperidin-1-ylmethyl)-1,2-thiazol-5-yl]amino}pyrazine-2-carboxamide], the pIC50 at LCK was 7.00 to 8.00; against ITK, 6.00 to 7.00; on TEC it was 7.00 to 8.00.

On to `C[C@@H]1[C@H](NC(=O)c2ccc(S(F)(F)(F)(F)F)cc2)CCCN1c1cnc(C(N)=O)c(Nc2cnn(C)c2)n1` [Example D-230, 3-[(1-methyl-1H-pyrazol-4-yl)amino]-5-[(2R,3R)-2-methyl-3-[4-(pentafluoro-λ^6-sulfanyl)benzamido]piperidin-1-yl]pyrazine-2-carboxamide], for which the figures for the pIC50 at LCK, at ITK and on TEC were 6.00 to 7.00, 5.00 to 6.00 and 7.00 to 8.00, respectively.

As for `Cc1cc(Nc2cc(N3CCC[C@@H](NC(=O)N(C)C)[C@H]3C)cnc2C(N)=O)sn1` [Example D-175, 5-[(2R,3R)-3-[(dimethylcarbamoyl)amino]-2-methylpiperidin-1-yl]-3-[(3-methyl-1,2-thiazol-5-yl)amino]pyridine-2-carboxamide], the pIC50 on LCK, against ITK and against TEC was 5.00 to 6.00 in each case.

Consider `Cn1cc(Nc2nc(N3CCC[C@@H](n4ccc5cc(C6CC6)ncc5c4=O)C3)cnc2C(N)=O)cn1` [Example D-225, 5-[(3R)-3-(6-cyclopropyl-1-oxo-1,2-dihydro-2,7-naphthyridin-2-yl)piperidin-1-yl]-3-[(1-methyl-1H-pyrazol-4-yl)amino]pyrazine-2-carboxamide], for which the pIC50 on LCK was 6.00 to 7.00; against ITK, 6.00 to 7.00; on TEC, not below 8.00.

Turning to `C[C@@H]1[C@H](NC(=O)c2ccc(C3CC3)cc2)CCCN1c1cnc(C(N)=O)c(Nc2cnn(CCN(C)C)c2)n1` [Example D-187, 5-[(2R,3R)-3-(4-cyclopropylbenzamido)-2-methylpiperidin-1-yl]-3-({1-[2-(dimethylamino)ethyl]-1H-pyrazol-4-yl}amino)pyrazine-2-carboxamide], the pIC50 at LCK is 6.00 to 7.00; against ITK, 5.00 to 6.00; against TEC, 6.00 to 7.00.
